How the values were obtained:
Experiment in all cases: biochemical
Design in all cases: DiscoverX KINOMEscan scanMAX competition binding panel, single concentration, percent of control; remaining binding: dose or concentration left out as unconfirmed
Conditions in all cases: KINOMEscan binding, percent of control; read-out: Table S4_SCANMAX REPORT - related to Fig. 1 / Percent Control
ABL1-nonphosphorylated = biological target: T1, ABL1-nonphosphorylated (Homo sapiens, UniProt P00519)
T1 construct: nonphosphorylated
T1 sequence (P00519 whole entry): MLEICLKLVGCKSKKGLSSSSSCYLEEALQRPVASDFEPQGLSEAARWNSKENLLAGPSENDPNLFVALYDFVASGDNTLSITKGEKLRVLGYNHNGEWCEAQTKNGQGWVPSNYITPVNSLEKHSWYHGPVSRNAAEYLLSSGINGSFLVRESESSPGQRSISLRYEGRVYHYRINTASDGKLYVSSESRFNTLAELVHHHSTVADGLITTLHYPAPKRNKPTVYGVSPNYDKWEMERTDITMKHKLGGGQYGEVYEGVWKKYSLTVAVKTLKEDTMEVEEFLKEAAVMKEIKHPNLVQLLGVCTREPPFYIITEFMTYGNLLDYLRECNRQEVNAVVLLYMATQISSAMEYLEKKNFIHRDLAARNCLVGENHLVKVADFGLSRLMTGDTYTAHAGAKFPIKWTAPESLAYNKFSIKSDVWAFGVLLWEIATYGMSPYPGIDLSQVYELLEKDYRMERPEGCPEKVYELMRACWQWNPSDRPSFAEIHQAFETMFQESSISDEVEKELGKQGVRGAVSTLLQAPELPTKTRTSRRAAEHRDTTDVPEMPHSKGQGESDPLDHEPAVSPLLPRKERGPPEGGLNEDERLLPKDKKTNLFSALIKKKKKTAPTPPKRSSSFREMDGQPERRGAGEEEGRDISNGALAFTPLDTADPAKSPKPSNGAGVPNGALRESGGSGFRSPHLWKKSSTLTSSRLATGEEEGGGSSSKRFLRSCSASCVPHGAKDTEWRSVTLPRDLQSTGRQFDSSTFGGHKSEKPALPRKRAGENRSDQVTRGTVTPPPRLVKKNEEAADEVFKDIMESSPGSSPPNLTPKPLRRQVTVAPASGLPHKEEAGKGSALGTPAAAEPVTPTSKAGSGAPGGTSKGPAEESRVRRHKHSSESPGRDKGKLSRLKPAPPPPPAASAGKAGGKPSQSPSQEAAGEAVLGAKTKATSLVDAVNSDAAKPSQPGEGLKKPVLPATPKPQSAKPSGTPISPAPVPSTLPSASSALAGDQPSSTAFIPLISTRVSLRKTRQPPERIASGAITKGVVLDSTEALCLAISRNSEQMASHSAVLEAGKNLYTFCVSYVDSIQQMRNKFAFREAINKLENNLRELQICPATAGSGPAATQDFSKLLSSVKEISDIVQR

BRAF = BRAF (Homo sapiens, UniProt P15056)
CDK2 = CDK2 (Homo sapiens, UniProt P24941)
CSNK1A1L = CSNK1A1L (Homo sapiens, UniProt Q8N752)
CSNK1A1L, sequence (Q8N752 whole entry): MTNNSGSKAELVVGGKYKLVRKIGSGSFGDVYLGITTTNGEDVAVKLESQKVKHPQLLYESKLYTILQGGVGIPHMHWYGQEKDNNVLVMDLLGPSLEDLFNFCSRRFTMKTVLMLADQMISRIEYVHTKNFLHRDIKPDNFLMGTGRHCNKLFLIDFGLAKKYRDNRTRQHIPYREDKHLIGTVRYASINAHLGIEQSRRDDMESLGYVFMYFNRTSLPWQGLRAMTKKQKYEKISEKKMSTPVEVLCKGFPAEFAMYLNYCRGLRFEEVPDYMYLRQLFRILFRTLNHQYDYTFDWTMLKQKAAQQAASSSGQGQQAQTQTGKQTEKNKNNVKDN

EPHA1 = EPHA1 (Homo sapiens, UniProt P21709)
FGFR4 = FGFR4 (Homo sapiens, UniProt P22455)
FLT1 = FLT1 (Homo sapiens, UniProt P17948)
FLT1, sequence (P17948 whole entry): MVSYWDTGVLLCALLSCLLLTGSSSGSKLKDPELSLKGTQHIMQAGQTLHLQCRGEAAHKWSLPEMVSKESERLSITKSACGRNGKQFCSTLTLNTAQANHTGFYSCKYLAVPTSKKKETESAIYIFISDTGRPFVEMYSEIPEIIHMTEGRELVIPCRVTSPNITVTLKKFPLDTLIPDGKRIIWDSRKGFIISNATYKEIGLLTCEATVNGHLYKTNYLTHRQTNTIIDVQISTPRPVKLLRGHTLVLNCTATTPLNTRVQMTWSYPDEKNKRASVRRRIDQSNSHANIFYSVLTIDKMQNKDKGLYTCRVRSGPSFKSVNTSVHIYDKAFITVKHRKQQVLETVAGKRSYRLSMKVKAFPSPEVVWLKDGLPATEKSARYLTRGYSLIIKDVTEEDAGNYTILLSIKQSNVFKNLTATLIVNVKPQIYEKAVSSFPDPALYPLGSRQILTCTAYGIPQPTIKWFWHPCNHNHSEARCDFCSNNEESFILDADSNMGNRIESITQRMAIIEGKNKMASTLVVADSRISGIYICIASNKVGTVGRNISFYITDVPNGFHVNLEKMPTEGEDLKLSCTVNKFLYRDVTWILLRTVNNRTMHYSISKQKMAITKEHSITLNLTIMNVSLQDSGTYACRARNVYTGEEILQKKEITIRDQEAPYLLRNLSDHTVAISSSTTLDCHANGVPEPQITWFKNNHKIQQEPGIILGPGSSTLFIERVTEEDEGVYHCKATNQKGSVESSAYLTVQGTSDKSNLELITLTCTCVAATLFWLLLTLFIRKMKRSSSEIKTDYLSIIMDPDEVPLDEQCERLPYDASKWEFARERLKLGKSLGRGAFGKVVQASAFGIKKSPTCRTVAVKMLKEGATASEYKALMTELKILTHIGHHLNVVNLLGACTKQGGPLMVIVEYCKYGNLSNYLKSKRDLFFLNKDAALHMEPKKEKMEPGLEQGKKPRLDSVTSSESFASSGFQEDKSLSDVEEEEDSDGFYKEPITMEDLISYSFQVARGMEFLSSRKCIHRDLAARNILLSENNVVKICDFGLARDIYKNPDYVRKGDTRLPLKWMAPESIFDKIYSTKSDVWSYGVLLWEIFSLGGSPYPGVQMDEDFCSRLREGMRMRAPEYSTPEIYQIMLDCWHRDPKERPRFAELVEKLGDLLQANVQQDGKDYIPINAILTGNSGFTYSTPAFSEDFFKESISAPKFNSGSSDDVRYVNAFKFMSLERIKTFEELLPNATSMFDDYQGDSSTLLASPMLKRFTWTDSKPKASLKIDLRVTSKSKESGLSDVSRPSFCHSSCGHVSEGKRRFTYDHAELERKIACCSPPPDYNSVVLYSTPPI

ITK = ITK (Homo sapiens, UniProt Q08881)
ITK, sequence (Q08881 whole entry): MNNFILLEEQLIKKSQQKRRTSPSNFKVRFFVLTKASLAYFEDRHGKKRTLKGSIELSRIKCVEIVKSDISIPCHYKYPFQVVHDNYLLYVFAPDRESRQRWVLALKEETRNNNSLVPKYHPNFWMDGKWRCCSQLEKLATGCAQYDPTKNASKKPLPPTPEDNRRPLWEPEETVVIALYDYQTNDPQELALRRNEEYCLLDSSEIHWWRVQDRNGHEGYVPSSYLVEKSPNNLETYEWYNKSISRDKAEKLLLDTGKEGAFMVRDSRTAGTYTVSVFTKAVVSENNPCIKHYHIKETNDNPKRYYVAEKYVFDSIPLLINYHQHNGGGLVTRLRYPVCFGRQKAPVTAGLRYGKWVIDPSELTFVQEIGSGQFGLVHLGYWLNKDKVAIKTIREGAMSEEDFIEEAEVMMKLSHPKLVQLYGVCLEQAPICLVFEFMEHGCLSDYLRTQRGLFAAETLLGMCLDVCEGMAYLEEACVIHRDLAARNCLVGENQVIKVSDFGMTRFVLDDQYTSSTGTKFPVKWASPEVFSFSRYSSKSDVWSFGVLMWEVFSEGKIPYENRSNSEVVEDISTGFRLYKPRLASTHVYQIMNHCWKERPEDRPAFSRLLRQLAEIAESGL

KIT = KIT (Homo sapiens, UniProt P10721)
KIT, sequence (P10721 whole entry): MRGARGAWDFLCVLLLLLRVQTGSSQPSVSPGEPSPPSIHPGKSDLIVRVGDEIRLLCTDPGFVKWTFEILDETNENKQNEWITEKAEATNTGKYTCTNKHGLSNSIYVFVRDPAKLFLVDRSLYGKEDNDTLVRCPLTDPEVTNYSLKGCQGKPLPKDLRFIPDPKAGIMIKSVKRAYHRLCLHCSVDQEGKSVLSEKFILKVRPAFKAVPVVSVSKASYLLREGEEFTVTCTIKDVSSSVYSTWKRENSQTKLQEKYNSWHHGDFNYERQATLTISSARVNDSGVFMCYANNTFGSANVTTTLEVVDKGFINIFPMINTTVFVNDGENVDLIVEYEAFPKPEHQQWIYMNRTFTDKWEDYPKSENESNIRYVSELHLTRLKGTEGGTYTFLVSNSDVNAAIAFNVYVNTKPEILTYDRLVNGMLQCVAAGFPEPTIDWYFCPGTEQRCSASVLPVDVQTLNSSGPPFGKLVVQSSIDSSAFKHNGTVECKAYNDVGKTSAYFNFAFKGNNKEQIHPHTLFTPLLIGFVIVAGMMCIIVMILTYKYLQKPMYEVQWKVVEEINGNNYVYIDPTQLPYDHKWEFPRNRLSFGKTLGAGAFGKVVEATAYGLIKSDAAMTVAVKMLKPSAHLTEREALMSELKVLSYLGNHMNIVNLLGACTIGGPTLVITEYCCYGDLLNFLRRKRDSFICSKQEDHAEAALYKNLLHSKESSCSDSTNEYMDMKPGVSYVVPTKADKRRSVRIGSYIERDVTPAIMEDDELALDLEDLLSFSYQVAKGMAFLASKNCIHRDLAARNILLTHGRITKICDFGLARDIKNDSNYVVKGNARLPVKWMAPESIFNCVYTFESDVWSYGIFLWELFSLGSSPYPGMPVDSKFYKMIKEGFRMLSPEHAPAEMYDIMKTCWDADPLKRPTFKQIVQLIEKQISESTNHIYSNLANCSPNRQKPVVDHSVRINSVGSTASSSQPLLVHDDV

MST3 = biological target: T2, MST3 (Homo sapiens, UniProt Q9Y6E0)
T2 construct: gene STK24

PFTAIRE2 = biological target: T3, PFTAIRE2 (Homo sapiens, UniProt Q96Q40)
T3 construct: gene CDK15
T3 sequence (Q96Q40 whole entry): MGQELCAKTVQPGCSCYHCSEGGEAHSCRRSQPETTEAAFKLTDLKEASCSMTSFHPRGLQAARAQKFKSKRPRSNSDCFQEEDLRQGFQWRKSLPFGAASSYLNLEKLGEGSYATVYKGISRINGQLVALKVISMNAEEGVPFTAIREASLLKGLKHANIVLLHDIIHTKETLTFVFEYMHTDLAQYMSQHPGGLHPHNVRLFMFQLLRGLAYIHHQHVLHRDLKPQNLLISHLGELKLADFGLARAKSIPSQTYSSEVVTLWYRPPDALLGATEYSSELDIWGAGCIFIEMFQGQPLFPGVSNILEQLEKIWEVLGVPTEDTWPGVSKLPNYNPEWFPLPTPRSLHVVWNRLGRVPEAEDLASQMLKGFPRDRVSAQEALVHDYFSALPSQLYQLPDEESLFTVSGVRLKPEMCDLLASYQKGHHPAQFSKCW

PIK3CA(I800L) = PIK3CA(I800L) (Homo sapiens, UniProt P42336, I800L)
PIK4CB = biological target: T4, PIK4CB (Homo sapiens, UniProt Q9UBF8)
T4 construct: gene PI4KB

PKAC-beta = biological target: T5, PKAC-beta (Homo sapiens, UniProt P22694)
T5 construct: gene PRKACB

[1] = biological target: T6, RSK3(Kin.Dom.1-N-terminal) (Homo sapiens, UniProt Q15349)
T6 construct: gene RPS6KA2; Kin.Dom.1-N-terminal

STK35 = STK35 (Homo sapiens, UniProt Q8TDR2)
TRKC = biological target: T7, TRKC (Homo sapiens, UniProt Q16288)
T7 construct: gene NTRK3

YANK1 = biological target: T8, YANK1 (Homo sapiens, UniProt Q8WU08)
T8 construct: gene STK32A

c1ccc2c(c1)Sc1ccccc1N2CCN1CCOCC1 [J54]
remaining binding (ABL1-nonphosphorylated): 95%
remaining binding (BRAF): 100%
remaining binding (CDK2): 92%
remaining binding (CSNK1A1L): 100%
remaining binding (EPHA1): 100%
remaining binding (FGFR4): 100%
remaining binding (FLT1): 98%
remaining binding (ITK): 100%
remaining binding (KIT): 100%
remaining binding (MST3): 100%
remaining binding (PFTAIRE2): 100%
remaining binding (PIK3CA(I800L)): 99%
remaining binding (PIK4CB): 100%
remaining binding (PKAC-beta): 86%
remaining binding [1]: 100%
remaining binding (STK35): 82%
remaining binding (TRKC): 81%
remaining binding (YANK1): 91%

Source: article PMC7486443, “Generation of Phenothiazine with Potent Anti-TLK1 Activity for Prostate Cancer Therapy” (iScience, 2020)
